The record followed here is US20250011881A1, “MYC-HSF1 DUAL AMPLIFICATION AS A BIOMARKER FOR CANCER TREATMENT” (The Trustees of Indiana University, priority 2023, published 2025).

Common to all, as to type: cell-based
The subject of test [1] is HSF1 and MYC target genes in OVCAR8. Kind of test: RT-qPCR of HSF1 and MYC target genes after entinostat. Conditions: OVCAR8, 24 hrs. As for the experimental part:
FIG. 6B is a bar graph depicting mRNA relative fold change in OVCAR8 cells treated with entinostat at the indicated doses for 24 hours. Total RNA from the cells was subjected to RT-qPCR or the indicated transcripts.
Results of this screen indicated 45 of the top 54 hits were compounds that targeted histone deacetylases (HDACs). (Table 1). To test the effect of HDAC inhibitors on cell lines having dual copy number gain in both MYC and HSF1, we treated OVCAR8 (positive for MYC-HSF1 amplification) for 24 hrs with an HDAC inhibitor, etinostat. Total RNA from treated cells was subjected to RTqPCR. To conduct the RTqPCR, RNA was extracted from cells using an RNA isolation kit with DNAse treatment (Zymo). RNA was subjected to reverse transcription using RT Master Mix (Applied Biosystems). qPCR was performed with SYBR Green Master Mix (Applied Biosystems) using a QuantStudio3 (Applied Biosystems). Experiments were performed in biological triplicate and analyzed using the […].
Background: In qPCR the cycle at which signal appears reflects the starting amount.

Test [2] concerns ovarian cancer cells with (OVCAR8, OVCAR4) or without (OVSAHO, CAOV3) MYC-HSF1 amplification. The experiment in a line: Epigenetic inhibitor drug screen, cell viability (Cell Titer Blue). Conditions: 10 uM, 48 hrs, average relative cell viability (vs 1% DMSO) of non-amplified cells (OVSAHO, CAOV3) minus that of MYC-HSF1 amplified cells (OVCAR8, OVCAR4), positive = greater response in amplified cells, 10 µM. Background: The colour change of resazurin is a common sign of viable cells or microbes.

Test [3] deals with MYC and HSF1 protein in OVCAR8 cells. Kind of test: Immunoblot of MYC and HSF1 after entinostat. The following applies: OVCAR8, 24 hours. As for the experimental part: FIG. 6C and FIG. 6D are immunoblots of OVCAR8 cells treated with entinostat at the indicated doses for 24 hours. Total protein from the cells was subjected to immunoblotting with the indicated antibodies.
Immunoblotting and co-immunoprecipitation was performed as described above. Antibodies for immunoblotting and immunoprecipitation included MYC (CST), HSF1 (CST), GAPDH (CST). […] Through the innovative method of screening potential therapeutics against cells having dual amplification of MYC and HSF1, Applicant was able to identify potential therapeutic targets, HDAC inhibitors, and therapeutics having increased efficacy against these cancer cells.
For orientation: Immunoblotting shows a protein as a band on a membrane.

In the case of `Nc1ccccc1NC(=O)c1ccc(CNC(=O)OCc2cccnc2)cc1` [Entinostat], in test [1], the “levels of HSF1 and MYC target genes (mRNA)” value is “significantly reduced levels of HSF1 and MYC target genes”. Also, the “Non Amp - AMP (POC) 10 uM” value turned out to be 52.31 POC in test [2] (listed as Entinostat (MS-275, SNDX-275)) and 65.06 POC in test [2] (listed as MS-275 (entinostat)). Moreover, in test [3], the “protein levels of MYC and HSF1” value was “reduced protein levels of both MYC and HSF1”.
